Results on 11 molecules are retold here after US20260356819A1, “OXOISOINDOLINYL-SUBSTITUTED […] DERIVATIVE AND USE THEREOF” (GLUETACS THERAPEUTICS (SHANGHAI) CO., LTD., priority 2023, published 2026).

Common to all, as to format: cell-based
Holding throughout (conditions): compounds at 50 nM and 500 nM

One experiment addresses T1, IKZF2 (Homo sapiens, UniProt Q96SW2+Q9UKS7).
T1 construct: The supernatant was aspirated as the extracted total cell protein; endogenous in cells; host or cells: human peripheral blood mononuclear cells (hPBMCs)
Nature of the experiment: Western blot degradation of IKZF2 in hPBMCs (24 h). An outline of the steps: (§1)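 Thawed human PBMCs, 1×10^6 cells/mL; cpd 50 nM or 500 nM, 24 h; RIPA lysis, BCA, SDS-PAGE, NC transfer, immunoblot. Readout: grayscale/internal control → % remaining; degradation = 1 − remaining.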
A general note: In western blotting, separated proteins are transferred to a membrane and probed.

For the next experiment, the target named is T2, WEE1 (Homo sapiens, UniProt P30291+Q96SW2).
T2 construct: The supernatant was aspirated as the extracted total cell protein; endogenous in cells; host or cells: human peripheral blood mononuclear cells (hPBMCs)
T2 sequence (P30291 whole entry): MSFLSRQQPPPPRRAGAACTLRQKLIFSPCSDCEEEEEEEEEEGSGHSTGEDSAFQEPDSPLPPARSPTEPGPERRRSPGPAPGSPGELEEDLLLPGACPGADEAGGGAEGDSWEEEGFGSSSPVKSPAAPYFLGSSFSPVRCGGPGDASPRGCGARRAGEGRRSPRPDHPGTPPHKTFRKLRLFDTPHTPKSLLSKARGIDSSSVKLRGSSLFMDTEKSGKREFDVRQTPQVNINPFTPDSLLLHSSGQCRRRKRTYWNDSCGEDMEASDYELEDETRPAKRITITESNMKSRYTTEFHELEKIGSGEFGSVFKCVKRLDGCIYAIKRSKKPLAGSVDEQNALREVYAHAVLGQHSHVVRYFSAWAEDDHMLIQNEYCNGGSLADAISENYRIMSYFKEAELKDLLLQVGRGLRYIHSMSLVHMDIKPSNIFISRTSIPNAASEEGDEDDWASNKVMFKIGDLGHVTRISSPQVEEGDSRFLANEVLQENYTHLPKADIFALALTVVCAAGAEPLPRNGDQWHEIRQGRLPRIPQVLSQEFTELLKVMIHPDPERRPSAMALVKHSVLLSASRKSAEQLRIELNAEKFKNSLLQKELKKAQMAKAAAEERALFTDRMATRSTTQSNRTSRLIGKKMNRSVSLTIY
T2 sequence (Q96SW2 whole entry): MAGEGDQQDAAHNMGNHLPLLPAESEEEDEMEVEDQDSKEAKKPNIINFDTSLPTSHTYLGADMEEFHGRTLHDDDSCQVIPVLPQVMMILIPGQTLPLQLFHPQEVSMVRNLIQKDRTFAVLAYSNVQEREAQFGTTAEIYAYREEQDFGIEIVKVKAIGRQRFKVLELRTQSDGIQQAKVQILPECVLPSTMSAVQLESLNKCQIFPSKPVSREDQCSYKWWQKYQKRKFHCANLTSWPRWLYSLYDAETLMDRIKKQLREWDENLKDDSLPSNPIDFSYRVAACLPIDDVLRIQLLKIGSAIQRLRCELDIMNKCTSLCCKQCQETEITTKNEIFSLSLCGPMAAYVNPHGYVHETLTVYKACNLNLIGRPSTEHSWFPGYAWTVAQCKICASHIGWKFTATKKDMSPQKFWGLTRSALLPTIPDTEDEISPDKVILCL
T2 sequence (Q16531 whole entry partner): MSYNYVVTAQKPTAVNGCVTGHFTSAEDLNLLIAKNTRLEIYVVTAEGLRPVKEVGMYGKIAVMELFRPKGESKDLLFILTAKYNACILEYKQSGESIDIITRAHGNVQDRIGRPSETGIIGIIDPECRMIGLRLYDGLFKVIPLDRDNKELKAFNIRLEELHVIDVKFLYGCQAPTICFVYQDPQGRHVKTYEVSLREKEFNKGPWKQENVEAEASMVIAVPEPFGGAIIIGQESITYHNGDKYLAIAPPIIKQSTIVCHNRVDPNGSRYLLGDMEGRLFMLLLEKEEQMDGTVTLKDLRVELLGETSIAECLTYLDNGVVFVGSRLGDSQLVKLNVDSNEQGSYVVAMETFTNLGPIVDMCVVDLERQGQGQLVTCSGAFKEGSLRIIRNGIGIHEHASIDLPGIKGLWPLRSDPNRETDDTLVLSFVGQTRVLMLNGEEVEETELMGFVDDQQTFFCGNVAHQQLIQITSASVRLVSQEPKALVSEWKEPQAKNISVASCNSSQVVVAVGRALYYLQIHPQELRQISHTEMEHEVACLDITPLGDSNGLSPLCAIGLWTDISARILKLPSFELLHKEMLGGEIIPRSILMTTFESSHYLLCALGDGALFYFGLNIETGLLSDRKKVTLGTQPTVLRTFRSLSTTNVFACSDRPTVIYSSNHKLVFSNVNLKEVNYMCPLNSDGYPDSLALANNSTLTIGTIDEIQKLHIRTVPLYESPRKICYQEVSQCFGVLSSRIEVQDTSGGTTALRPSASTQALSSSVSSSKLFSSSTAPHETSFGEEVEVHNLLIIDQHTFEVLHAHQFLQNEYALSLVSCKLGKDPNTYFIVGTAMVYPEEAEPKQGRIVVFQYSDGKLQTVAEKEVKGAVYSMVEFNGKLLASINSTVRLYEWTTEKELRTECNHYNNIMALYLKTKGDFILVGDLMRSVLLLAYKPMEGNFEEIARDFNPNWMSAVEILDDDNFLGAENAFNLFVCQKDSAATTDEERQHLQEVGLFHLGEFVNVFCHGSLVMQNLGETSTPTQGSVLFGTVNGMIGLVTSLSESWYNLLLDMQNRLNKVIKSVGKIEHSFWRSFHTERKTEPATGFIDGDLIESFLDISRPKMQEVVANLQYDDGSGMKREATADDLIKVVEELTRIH
Nature of the experiment: Western blot degradation of WEE1 in hPBMCs (24 h). An outline of the steps: as §1

The next experiment has as its target T3, IKZF3 (Homo sapiens, UniProt Q96SW2+Q9UKT9).
T3 construct: The supernatant was aspirated as the extracted total cell protein; endogenous in cells; host or cells: human peripheral blood mononuclear cells (hPBMCs)
Nature of the experiment: Western blot degradation of IKZF3 in hPBMCs (24 h). An outline of the steps: as §1

For another experiment, the target named is T4, GSPT1 (Homo sapiens, UniProt P15170+Q96SW2).
T4 construct: The supernatant was aspirated as the extracted total cell protein; endogenous in cells; host or cells: human peripheral blood mononuclear cells (hPBMCs)
T4 sequence (P15170 whole entry): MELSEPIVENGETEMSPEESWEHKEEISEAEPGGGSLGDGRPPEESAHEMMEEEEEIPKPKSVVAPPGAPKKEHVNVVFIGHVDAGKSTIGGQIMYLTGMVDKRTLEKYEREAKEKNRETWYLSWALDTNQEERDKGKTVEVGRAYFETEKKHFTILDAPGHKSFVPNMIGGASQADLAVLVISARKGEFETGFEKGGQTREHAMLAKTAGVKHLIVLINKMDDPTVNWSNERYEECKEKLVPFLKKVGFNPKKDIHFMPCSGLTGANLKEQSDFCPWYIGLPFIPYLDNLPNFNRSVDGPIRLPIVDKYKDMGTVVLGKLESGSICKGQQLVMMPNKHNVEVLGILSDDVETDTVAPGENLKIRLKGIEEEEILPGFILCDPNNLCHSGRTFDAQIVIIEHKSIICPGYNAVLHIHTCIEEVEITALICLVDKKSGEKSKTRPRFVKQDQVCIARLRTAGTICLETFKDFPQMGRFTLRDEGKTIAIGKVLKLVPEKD
T4 sequence (Q96SW2 whole entry): as the sequence (Q96SW2 whole entry) above
T4 sequence (Q16531 whole entry partner): as the sequence (Q16531 whole entry partner) above
Nature of the experiment: Western blot degradation of GSPT1 in hPBMCs (24 h). An outline of the steps: as §1

For another experiment, the target named is T5, CK1α (Homo sapiens, UniProt P48729+Q96SW2).
T5 construct: The supernatant was aspirated as the extracted total cell protein; endogenous in cells; host or cells: human peripheral blood mononuclear cells (hPBMCs)
Nature of the experiment: Western blot degradation of CK1α in hPBMCs (24 h). An outline of the steps:
as §1

The target of the next experiment is T6, IKZF1 (Homo sapiens, UniProt Q13422+Q96SW2).
T6 construct: The supernatant was aspirated as the extracted total cell protein; endogenous in cells; host or cells: human peripheral blood mononuclear cells (hPBMCs)
T6 sequence (Q13422 whole entry): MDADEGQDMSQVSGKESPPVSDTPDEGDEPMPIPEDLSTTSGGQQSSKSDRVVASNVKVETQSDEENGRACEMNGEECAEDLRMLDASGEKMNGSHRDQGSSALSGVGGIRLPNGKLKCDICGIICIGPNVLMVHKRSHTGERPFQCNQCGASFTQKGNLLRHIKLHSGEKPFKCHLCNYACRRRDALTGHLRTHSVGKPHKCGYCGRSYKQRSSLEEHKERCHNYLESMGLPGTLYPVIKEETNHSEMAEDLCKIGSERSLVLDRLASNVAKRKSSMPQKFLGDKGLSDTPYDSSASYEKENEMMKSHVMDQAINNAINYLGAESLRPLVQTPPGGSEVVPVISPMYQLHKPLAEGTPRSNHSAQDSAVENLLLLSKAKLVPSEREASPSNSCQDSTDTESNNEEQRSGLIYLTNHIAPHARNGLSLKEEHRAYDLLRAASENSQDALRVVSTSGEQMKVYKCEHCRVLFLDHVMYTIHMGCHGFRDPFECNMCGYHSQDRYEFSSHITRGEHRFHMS
T6 sequence (Q96SW2 whole entry): as the sequence (Q96SW2 whole entry) above
T6 sequence (Q16531 whole entry partner): as the sequence (Q16531 whole entry partner) above
The experiment in a line: Western blot degradation of IKZF1 in hPBMCs (24 h). An outline of the steps: as §1

T1 sequence (Q9UKS7 whole entry): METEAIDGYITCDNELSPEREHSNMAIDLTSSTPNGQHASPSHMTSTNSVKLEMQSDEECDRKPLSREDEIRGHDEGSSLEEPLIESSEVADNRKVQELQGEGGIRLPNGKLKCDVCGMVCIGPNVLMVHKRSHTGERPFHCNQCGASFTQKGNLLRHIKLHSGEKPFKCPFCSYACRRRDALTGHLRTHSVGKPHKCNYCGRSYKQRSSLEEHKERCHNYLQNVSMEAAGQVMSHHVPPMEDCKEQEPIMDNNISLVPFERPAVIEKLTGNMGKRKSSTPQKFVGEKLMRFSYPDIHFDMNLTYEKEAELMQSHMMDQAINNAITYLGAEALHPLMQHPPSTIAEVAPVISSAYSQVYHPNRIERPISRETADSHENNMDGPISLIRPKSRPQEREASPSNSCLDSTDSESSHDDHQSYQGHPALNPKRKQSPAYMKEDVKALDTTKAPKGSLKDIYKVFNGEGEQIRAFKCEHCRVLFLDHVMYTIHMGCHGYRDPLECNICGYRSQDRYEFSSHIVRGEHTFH
T1 sequence (Q96SW2 whole entry): as the sequence (Q96SW2 whole entry) above
T1 sequence (Q16531 whole entry partner): as the sequence (Q16531 whole entry partner) above
T3 sequence (Q9UKT9 whole entry): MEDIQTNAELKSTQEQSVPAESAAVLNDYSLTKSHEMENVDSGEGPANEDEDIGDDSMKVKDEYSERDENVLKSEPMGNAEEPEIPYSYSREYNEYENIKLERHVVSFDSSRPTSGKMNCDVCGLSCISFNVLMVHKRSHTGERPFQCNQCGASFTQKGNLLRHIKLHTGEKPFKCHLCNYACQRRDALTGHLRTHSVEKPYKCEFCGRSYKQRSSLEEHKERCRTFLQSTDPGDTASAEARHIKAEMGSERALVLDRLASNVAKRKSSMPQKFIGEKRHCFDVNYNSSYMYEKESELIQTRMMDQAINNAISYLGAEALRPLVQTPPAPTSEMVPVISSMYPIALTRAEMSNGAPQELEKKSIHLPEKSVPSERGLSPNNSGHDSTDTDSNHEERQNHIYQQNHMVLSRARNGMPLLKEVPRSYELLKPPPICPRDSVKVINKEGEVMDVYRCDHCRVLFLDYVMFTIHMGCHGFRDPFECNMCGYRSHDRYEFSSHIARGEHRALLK
T3 sequence (Q96SW2 whole entry): as the sequence (Q96SW2 whole entry) above
T3 sequence (Q16531 whole entry partner): as the sequence (Q16531 whole entry partner) above

On to `O=C1CCN(N2Cc3cc(CN4CCC(c5ccoc5)CC4)ccc3C2=O)C(=O)N1` [GT-07375, 1-(5-((4-(furan-3-yl)piperidin-1-yl)methyl)-1-oxoisoindolin-2-yl)dihydropyrimidine-2,4(1H,3H)-dione], for which the “IKZF2 substrate protein remaining %” value on IKZF2 was “B (80%< substrate protein remaining % ≤100%)”. The “WEE1 substrate protein remaining %” value at WEE1 is given as “B (80%< substrate protein remaining % ≤100%)”. Moreover, the “IKZF3 substrate protein remaining %” value on IKZF3 is “B (80%< substrate protein remaining % ≤100%)”. Also, the “GSPT1 substrate protein remaining %” value on GSPT1 is on record as “A (0% ≤ substrate protein remaining % ≤80%)”. For the same molecule, the “CK1α substrate protein remaining %” value at CK1α was “A (0% ≤ substrate protein remaining % ≤80%)”. In addition, the “IKZF1 substrate protein remaining %” value on IKZF1 was “B (80%< substrate protein remaining % ≤100%)”.

Take `O=C1CCN(N2Cc3cc(CN4C5CC4CN(C(=O)C4=C(c6ccc(F)cc6)CCCC4)C5)ccc3C2=O)C(=O)N1` [GT-07376, 1-(5-((3-(4′-fluoro-3,4,5,6-tetrahydro-[1,1′-biphenyl]-2-carbonyl)-3,6-diazabicyclo[3.1.1]heptan-6-yl)methyl)-1-oxoisoindolin-2-yl)dihydropyrimidine-2,4(1H,3H)-dione]: the “IKZF2 substrate protein remaining %” value at IKZF2 was “B (80%< substrate protein remaining % ≤100%)”. The “WEE1 substrate protein remaining %” value at WEE1 is on record as “A (0% ≤ substrate protein remaining % ≤80%)”. Besides, the “IKZF3 substrate protein remaining %” value on IKZF3 is “B (80%< substrate protein remaining % ≤100%)”. Also, the “GSPT1 substrate protein remaining %” value at GSPT1 is “B (80%< substrate protein remaining % ≤100%)”. Besides, on CK1α, the “CK1α substrate protein remaining %” value was “B (80%< substrate protein remaining % ≤100%)”. Further, the “IKZF1 substrate protein remaining %” value on IKZF1 is “B (80%< substrate protein remaining % ≤100%)”.

Take `O=C1CCN(N2C(=O)c3ccc(CN4C5CC4CN(C(=O)C4=C(c6ccc(F)cc6)CCCC4)C5)cc3C2=O)C(=O)N1` [GT-07377, 2-(2,4-dioxotetrahydropyrimidin-1(2H)-yl)-5-((3-(4′-fluoro-3,4,5,6-tetrahydro-[1,1′-biphenyl]-2-carbonyl)-3,6-diazabicyclo[3.1.1]heptan-6-yl)methyl)isoindoline-1,3-dione]: the “IKZF2 substrate protein remaining %” value on IKZF2 is listed as “A (0% ≤ substrate protein remaining % ≤80%)”. Further, on WEE1, the “WEE1 substrate protein remaining %” value is “A (0% ≤ substrate protein remaining % ≤80%)”. Moreover, the “IKZF3 substrate protein remaining %” value on IKZF3 is listed as “B (80%< substrate protein remaining % ≤100%)”. Further, at GSPT1, the “GSPT1 substrate protein remaining %” value is on record as “A (0% ≤ substrate protein remaining % ≤80%)”. Besides, the “CK1α substrate protein remaining %” value on CK1α is listed as “A (0% ≤ substrate protein remaining % ≤80%)”. Moreover, the “IKZF1 substrate protein remaining %” value at IKZF1 was “B (80%< substrate protein remaining % ≤100%)”.

For the molecule `O=C1CCN(N2C(=O)c3ccc(CN4CCC(c5ccsc5)CC4)cc3C2=O)C(=O)N1` [GT-07420, 2-(2,4-dioxotetrahydropyrimidin-1(2H)-yl)-5-((4-(thiophen-3-yl)piperidin-1-yl)methyl)isoindoline-1,3-dione], the “IKZF2 substrate protein remaining %” value on IKZF2 is given as “B (80%< substrate protein remaining % ≤100%)”. The “WEE1 substrate protein remaining %” value at WEE1 is given as “B (80%< substrate protein remaining % ≤100%)”. The “IKZF3 substrate protein remaining %” value at IKZF3 is listed as “B (80%< substrate protein remaining % ≤100%)”. Besides, the “GSPT1 substrate protein remaining %” value on GSPT1 was “A (0% ≤ substrate protein remaining % ≤80%)”. For the same molecule, the “CK1α substrate protein remaining %” value at CK1α is on record as “A (0% ≤ substrate protein remaining % ≤80%)”. Further, the “IKZF1 substrate protein remaining %” value on IKZF1 was “B (80%< substrate protein remaining % ≤100%)”.

`Cc1cc(C2CCN(Cc3ccc4c(c3)C(=O)N(N3CCC(=O)NC3=O)C4=O)CC2)cs1` [GT-07421, 2-(2,4-dioxotetrahydropyrimidin-1(2H)-yl)-5-((4-(5-methylthiophen-3-yl)piperidin-1-yl)methyl)isoindoline-1,3-dione]: the “IKZF2 substrate protein remaining %” value on IKZF2 was “B (80%< substrate protein remaining % ≤100%)”. Moreover, at WEE1, the “WEE1 substrate protein remaining %” value is “B (80%< substrate protein remaining % ≤100%)”. Further, the “IKZF3 substrate protein remaining %” value on IKZF3 was “B (80%< substrate protein remaining % ≤100%)”. The “GSPT1 substrate protein remaining %” value on GSPT1 is “A (0% ≤ substrate protein remaining % ≤80%)”. The “CK1α substrate protein remaining %” value at CK1α is “A (0% ≤ substrate protein remaining % ≤80%)”. The “IKZF1 substrate protein remaining %” value at IKZF1 is “B (80%< substrate protein remaining % ≤100%)”.

With `O=C1CCN(N2C(=O)c3ccc(CN4CCC(c5ccoc5)CC4)cc3C2=O)C(=O)N1` [GT-07422, 2-(2,4-dioxotetrahydropyrimidin-1(2H)-yl)-5-((4-(furan-3-yl)piperidin-1-yl)methyl)isoindoline-1,3-dione], the “IKZF2 substrate protein remaining %” value on IKZF2 is reported as “B (80%< substrate protein remaining % ≤100%)”. Besides, the “WEE1 substrate protein remaining %” value at WEE1 is given as “B (80%< substrate protein remaining % ≤100%)”. Moreover, the “IKZF3 substrate protein remaining %” value at IKZF3 is on record as “B (80%< substrate protein remaining % ≤100%)”. Further, on GSPT1, the “GSPT1 substrate protein remaining %” value is “A (0% ≤ substrate protein remaining % ≤80%)”. Further, the “CK1α substrate protein remaining %” value at CK1α is given as “A (0% ≤ substrate protein remaining % ≤80%)”. The “IKZF1 substrate protein remaining %” value on IKZF1 is “B (80%< substrate protein remaining % ≤100%)”.

For the molecule `Cc1cc(C2=CCN(Cc3ccc4c(c3)C(=O)N(N3CCC(=O)NC3=O)C4=O)CC2)cs1` [GT-07423, 2-(2,4-dioxotetrahydropyrimidin-1(2H)-yl)-5-((4-(5-methylthiophen-3-yl)-3,6-dihydropyridin-1(2H)-yl)methyl)isoindoline-1,3-dione], the “IKZF2 substrate protein remaining %” value on IKZF2 is on record as “B (80%< substrate protein remaining % ≤100%)”. On WEE1, the “WEE1 substrate protein remaining %” value is “A (0% ≤ substrate protein remaining % ≤80%)”. For the same molecule, the “IKZF3 substrate protein remaining %” value on IKZF3 is “A (0% ≤ substrate protein remaining % ≤80%)”. Further, on GSPT1, the “GSPT1 substrate protein remaining %” value is listed as “A (0% ≤ substrate protein remaining % ≤80%)”. For the same molecule, the “CK1α substrate protein remaining %” value at CK1α is recorded as “A (0% ≤ substrate protein remaining % ≤80%)”. Further, the “IKZF1 substrate protein remaining %” value on IKZF1 was “B (80%< substrate protein remaining % ≤100%)”.

For `O=C1CCN(N2C(=O)c3ccc(CN4CCC(c5cccs5)CC4)cc3C2=O)C(=O)N1` [GT-07424, 2-(2,4-dioxotetrahydropyrimidin-1(2H)-yl)-5-((4-(thiophen-2-yl)piperidin-1-yl)methyl)isoindoline-1,3-dione], the “IKZF2 substrate protein remaining %” value on IKZF2 is “B (80%< substrate protein remaining % ≤100%)”. Besides, the “WEE1 substrate protein remaining %” value on WEE1 is reported as “A (0% ≤ substrate protein remaining % ≤80%)”. In addition, the “IKZF3 substrate protein remaining %” value at IKZF3 is recorded as “A (0% ≤ substrate protein remaining % ≤80%)”. In addition, the “GSPT1 substrate protein remaining %” value at GSPT1 is on record as “A (0% ≤ substrate protein remaining % ≤80%)”. In addition, the “CK1α substrate protein remaining %” value on CK1α is “B (80%< substrate protein remaining % ≤100%)”. Also, the “IKZF1 substrate protein remaining %” value at IKZF1 is “A (0% ≤ substrate protein remaining % ≤80%)”.

With `O=C1CCN(N2Cc3cc(CN4C[C@H]5C[C@@H]4CN5c4cccc(Cl)c4Cl)ccc3C2=O)C(=O)N1` [GT-07427, 1-(5-(((1R,4R)-5-(2,3-dichlorophenyl)-2,5-diazabicyclo[2.2.1]heptan-2-yl)methyl)-1-oxoisoindolin-2-yl)dihydropyrimidine-2,4(1H,3H)-dione], the “IKZF2 substrate protein remaining %” value at IKZF2 is recorded as “B (80%< substrate protein remaining % ≤100%)”. In addition, the “WEE1 substrate protein remaining %” value on WEE1 is “A (0% ≤ substrate protein remaining % ≤80%)”. For the same molecule, the “IKZF3 substrate protein remaining %” value at IKZF3 is “B (80%< substrate protein remaining % ≤100%)”. At GSPT1, the “GSPT1 substrate protein remaining %” value is “A (0% ≤ substrate protein remaining % ≤80%)”. The “CK1α substrate protein remaining %” value at CK1α is “A (0% ≤ substrate protein remaining % ≤80%)”. Also, on IKZF1, the “IKZF1 substrate protein remaining %” value was “A (0% ≤ substrate protein remaining % ≤80%)”.

With `O=C1CCN(N2Cc3cc(CN4CC5CCC4CN5c4cccc(Cl)c4Cl)ccc3C2=O)C(=O)N1` (stereo not drawn) [GT-07428, 1-(5-((5-(2,3-dichlorophenyl)-2,5-diazabicyclo[2.2.2]octan-2-yl)methyl)-1-oxoisoindolin-2-yl)dihydropyrimidine-2,4(1H,3H)-dione], on IKZF2, the “IKZF2 substrate protein remaining %” value is recorded as “B (80%< substrate protein remaining % ≤100%)”. Further, on WEE1, the “WEE1 substrate protein remaining %” value is on record as “B (80%< substrate protein remaining % ≤100%)”. Further, the “IKZF3 substrate protein remaining %” value on IKZF3 is on record as “B (80%< substrate protein remaining % ≤100%)”. For the same molecule, the “GSPT1 substrate protein remaining %” value on GSPT1 was “A (0% ≤ substrate protein remaining % ≤80%)”. The “CK1α substrate protein remaining %” value on CK1α is “A (0% ≤ substrate protein remaining % ≤80%)”. Besides, on IKZF1, the “IKZF1 substrate protein remaining %” value was “A (0% ≤ substrate protein remaining % ≤80%)”.

As to `O=C1CCN(N2Cc3cc(CN4CC5CCC(C4)N5c4cccc(Cl)c4Cl)ccc3C2=O)C(=O)N1` [GT-07429, 1-(5-((8-(2,3-dichlorophenyl)-3,8-diazabicyclo[3.2.1]octan-3-yl)methyl)-1-oxoisoindolin-2-yl)dihydropyrimidine-2,4(1H,3H)-dione], the “IKZF2 substrate protein remaining %” value at IKZF2 is recorded as “B (80%< substrate protein remaining % ≤100%)”. In addition, the “WEE1 substrate protein remaining %” value at WEE1 is listed as “B (80%< substrate protein remaining % ≤100%)”. The “IKZF3 substrate protein remaining %” value at IKZF3 is “B (80%< substrate protein remaining % ≤100%)”. For the same molecule, the “GSPT1 substrate protein remaining %” value on GSPT1 is given as “B (80%< substrate protein remaining % ≤100%)”. Besides, on CK1α, the “CK1α substrate protein remaining %” value was “B (80%< substrate protein remaining % ≤100%)”. For the same molecule, the “IKZF1 substrate protein remaining %” value on IKZF1 was “A (0% ≤ substrate protein remaining % ≤80%)”.
